{"source": "paper PMC9080489", "about": "“Synthesis and biological evaluation of 2-aryl-benzimidazole derivatives of dehydroabietic acid as novel tubulin polymerization inhibitors” (RSC Advances, 2018)", "key": {"[1]": {"tested_on": "human normal hepatocyte cell line (QSG-7701)", "assay": "MTT cytotoxic assay, QSG-7701", "format": "cell-based", "settings": "QSG7701, 48 h exposure", "procedure": "The in vitro antiproliferative activity of DAA derivatives (1–5, 6a–k, 7a–k) were evaluated by MTT assay against human hepatocarcinoma cell line (SMMC-7721), human breast cancer cell line (MDA-MB-231), human cervical carcinoma cell line (HeLa), mouse colon cancer cell line (CT-26) and human normal hepatocyte cell line (QSG-7701). Nocodazole was co-assayed as the positive control and DMEM culture medium containing 0.1% DMSO was used as negative control. The results of the tested compounds expressed as IC50 values (concentration required to inhibit tumor cell proliferation by 50%) were presented in Table 1.\nThe human hepatocarcinoma cell line (SMMC-7721), human breast cancer cell line (MDA-MB-231), human cervical carcinoma cell line (HeLa), mouse colon cancer cell line (CT-26) and human normal hepatocyte cells (QSG-7701) used in this study were all obtained from Keygene Biotech., China. These cell lines were maintained in DMEM medium supplemented with 10% heat-inactivated fetal bovine serum in a humidified atmosphere of 5% CO2 at 37 °C.\nThe in vitro cytotoxic activities of the benzimidazole derivatives of dehydroabietic acid were evaluated against tested cell lines via the MTT colorimetric method. Briefly, different tumor cells were grown in DMEM medium supplemented with 10% fetal bovine serum, penicillin (100 U mL^−1), and streptomycin (50 μg mL^−1). Cells were harvested at log phase of growth and seeded in 96-well plates (100 μL per well at a density of 2 × 10^5 cells mL^−1). After 24 h incubation at 37 °C and 5% CO2 to allow cell attachment, cultures were exposed to various concentrations of the isolated compounds for 48 h. Finally, MTT solution (2.5 mg mL^−1 in PBS) was added (40 μL per well). Plates were further incubated for 4 h at 37 °C, and the formazan crystals formed were dissolved by adding 150 μL per well of DMSO. Absorption at 570 nm was measured with an ELISA plate reader. The results were expressed as IC50 values with standard deviations, which was defined as the concentration at which 50% survival of cells was discerned. Nocodazole was co-assayed as positive control."}, "[2]": {"tested_on": "SMMC-7721 cells", "assay": "Cell cycle analysis (PI staining, flow cytometry)", "format": "cell-based, human", "settings": "24 h; for percentage of cells in G2/M phase: control 8.86%; for percentage of cells in S phase: control 25.21%; for percentage of cells in G0/G1 phase: control 65.93%", "procedure": "Flow cytometry was used to analyze the effects of the DAA derivative on cell growth and division. SMMC-7721 cells were treated with different concentrations of compound 6j (0, 0.1, 0.2 and 0.5 μM) for 24 h. Cell cycle distribution was investigated by flow cytometric analysis after staining the DNA of the treated cells with propidium iodide (PI).\nFor the flow cytometric analysis of the DNA content, SMMC-7721 cells were seeded in 6-well plates (5 × 10^5 cells per well) and incubated in the absence or presence of compound 6j at indicated concentrations for 24 h. After treatment, cells were detached with 0.25% trypsin, harvested by centrifugation, washed twice with ice-cold PBS and then fixed and permeabilized with ice-cold ethanol at 4 °C overnight. Ethanol was removed by centrifugation, and the cells were washed twice and resuspended in ice-cold PBS. After this, the cells were treated with 100 μL of 100 μg mL^−1 RNAse A at 37 °C for 30 min, followed by incubation with 400 μL of 1 mg mL^−1 DNA staining solution propidium iodide (PI) in the dark at 4 °C for 30 min. The samples were then analyzed for their DNA content by flow cytometry (Becton-Dickinson FACSCalibur, New York, USA)."}, "[3]": {"tested_on": "intracellular microtubule system of SMMC-7721 cells", "assay": "Immunofluorescence staining of microtubule network", "format": "cell-based, human", "settings": "24 h (Fig. 4 legend)", "procedure": "Since the tubulin polymerization inhibitory effect of compound 6j has been verified, we subsequently performed the immunofluorescent staining assay to observe its effect on the intracellular microtubule system of SMMC-7721 cells.\n[…] After being washed with phosphate buffer solution (PBS) and fixed in 4% paraformaldehyde for 15 min, the cells were permeabilized with 0.5% Triton X-100 for 15 min and blocked for 30 min with 10% goat serum. Then, the cells were incubated with mouse anti-tubulin antibody (ZSGB-Bio, China) at 4 °C overnight and incubated with goat anti-mouse IgG/Alexa-Fluor 488 antibody (ZSGB-Bio, China) at room temperature for 1 h. After the nuclei were stained with Hoechst 33258 (Beyotime Biotech., China) in the dark at room temperature for 30 min, the samples were immediately visualized on a Zeiss LSM 570 laser scanning confocal microscope (Carl Zeiss, Germany)."}, "[4]": {"tested_on": "SMMC-7721 cells", "assay": "ROS generation assay (DCFH-DA)", "format": "cell-based, human", "settings": "0.2, 0.5, 1 and 2 μM, 24 h", "procedure": "Reactive oxygen species (ROS) are highly harmful elements to cells as they exert oxidative stress and finally cause cellular damage. Excessive ROS generation renders cells vulnerable to apoptosis.[39] To determine whether compound 6j triggers ROS generation in SMMC-7721 cells to induce apoptosis, the cells were treated with different concentrations (0, 0.2, 0.5, 1 and 2 μM) of compound 6j for 24 h, and the ROS generation was evaluated using the fluorescent probe 2,7-dichlorofluorescein diacetate (DCF-DA) by fluorescence microscopy. […] This phenomenon implied that the increment of ROS might play an important role as an early mediator in compound 6j-induced apoptosis.\nROS generation assay was performed by using the reactive oxygen species assay kit (Beyotime Biotech., China). Intracellular ROS generation was tested through dichlorodihydro fluorescein diacetate (DCFH-DA) assay. DCFH-DA is taken up by SMMC-7721 cells, and then activated by esterase-mediated cleavage of acetate to form dichlorodihydro fluorescein (DCFH), which is trapped in the cells. DCFH is converted to fluorescein DCF in the presence of ROS. SMMC-7721 cells were seeded in six-well plates and incubated with different concentrations of compound 6j for 24 h. […] Immediately after light exposure, cell images were acquired through an inverted fluorescence microscope (Olympus 1X71 Inverted System Microscope, Olympus, Japan)."}}, "data": [{"smiles": "COC(=O)[C@]1(C)CCC[C@]2(C)c3cc(Br)c4nc(-c5ccc6[nH]ccc6c5)[nH]c4c3CCC12", "note": "(some centres unmarked) [Compound 6j, Methyl 2′-(1H-indol-5-yl)-12-bromo-13,14-imidazolyl-deisopropyl-dehydroabietate]", "values": [{"measurement": "IC50", "setting": "[1]", "value": "5.82 ± 0.38", "unit": "µM"}, {"measurement": "percentage of cells in G2/M phase", "setting": "[2]; 0.1 μM", "value": 13.65, "unit": "%"}, {"measurement": "percentage of cells in S phase", "setting": "[2]; 0.1 μM", "value": 29.52, "unit": "%"}, {"measurement": "percentage of cells in G0/G1 phase", "setting": "[2]; 0.1 μM", "value": 56.83, "unit": "%"}, {"measurement": "percentage of cells in G2/M phase", "setting": "[2]; 0.2 μM", "value": 18.37, "unit": "%"}, {"measurement": "percentage of cells in S phase", "setting": "[2]; 0.2 μM", "value": 29.34, "unit": "%"}, {"measurement": "percentage of cells in G0/G1 phase", "setting": "[2]; 0.2 μM", "value": 52.28, "unit": "%"}, {"measurement": "percentage of cells in G2/M phase", "setting": "[2]; 0.5 μM", "value": 26.42, "unit": "%"}, {"measurement": "percentage of cells in S phase", "setting": "[2]; 0.5 μM", "value": 24.27, "unit": "%"}, {"measurement": "percentage of cells in G0/G1 phase", "setting": "[2]; 0.5 μM", "value": 49.30, "unit": "%"}, {"measurement": "effect on the microtubule network", "setting": "[3]; 0.5 μM", "value": "most microtubule networks disappeared"}, {"measurement": "effect on the microtubule network", "setting": "[3]; 0.1–0.5 μM", "value": "the meshy microtubule networks shrank around the nuclei in a dose-dependent manner"}, {"measurement": "ROS generation (DCF green fluorescence)", "setting": "[4]", "value": "significantly induced ROS generation"}, {"measurement": "melting point", "value": "179 to 181", "unit": "°C"}]}]}
